Source: ChEMBL document CHEMBL1201862, “PubChem BioAssay data set” (2004)
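Following 48 hours of exposure in 96-well plates, responses at five concentrations were used to interpolate endpoints linearly. At the GI50, growth is halved.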 Calls of active or inactive are those of the source. Rule as the data show it: active = GI50 up to about 1.1 µM and inactive = higher.

What was measured:
Experiment in all cases: DTP human tumour cell line panel, 48 h
EKVX = tested on: EKVX
Malme-3M = tested on: Malme-3M
HCT-15 = tested on: HCT-15
OVCAR-3 = tested on: OVCAR-3
SN12C = tested on: SN12C
NCI-H460 = tested on: NCI-H460
KM12 = tested on: KM12
UACC-257 = tested on: UACC-257
MOLT-4 = tested on: MOLT-4
TK-10 = tested on: TK-10
HOP-62 = tested on: HOP-62
NCI/ADR-RES = tested on: NCI/ADR-RES
A549 = tested on: A549
M14 = tested on: M14
DU-145 = tested on: DU-145
PC-3 = tested on: PC-3
COLO 205 = tested on: COLO 205
RXF 393 = tested on: RXF 393
RPMI-8226 = tested on: RPMI-8226

Row | SMILES | GI50 (EKVX) | GI50 (Malme-3M) | GI50 (HCT-15) | GI50 (OVCAR-3) | GI50 (SN12C) | GI50 (NCI-H460) | GI50 (KM12) | GI50 (UACC-257) | GI50 (MOLT-4) | GI50 (TK-10) | GI50 (HOP-62) | GI50 (NCI/ADR-RES) | GI50 (A549) | GI50 (M14) | GI50 (DU-145) | GI50 (PC-3) | GI50 (COLO 205) | GI50 (RXF 393) | GI50 (RPMI-8226)
1 | COC(=O)C1(C(=O)OC)Cc2ccc(C)cc2C2=C1C(=O)c1ccccc1C2=O | 14.6 µM (inactive) | 32 µM (inactive) | 12.6 µM | 3.24 µM (inactive) | 19.8 µM (inactive) | 40.6 µM (inactive) | 16.6 µM (inactive) | 16.5 µM (inactive) | 8.51 µM (inactive) | 57 µM (inactive) | 14.4 µM (inactive) | 12.6 µM (inactive) | 29.9 µM (inactive) | > 10 µM (inactive) | 20.2 µM (inactive) | 15.2 µM (inactive) | – | – | –
2 | Cc1nc2ccccc2c(=O)n1NC(=O)Cc1ccccc1 | > 100 µM (inactive) | > 100 µM (inactive) | – | > 100 µM (inactive) | > 100 µM (inactive) | > 100 µM (inactive) | > 100 µM (inactive) | > 100 µM (inactive) | > 100 µM (inactive) | > 100 µM (inactive) | > 100 µM (inactive) | – | > 100 µM (inactive) | > 100 µM (inactive) | > 100 µM (inactive) | > 100 µM (inactive) | > 100 µM (inactive) | > 100 µM (inactive) | > 100 µM (inactive)
3 | O=C1CS(=O)(=O)C(c2cccc(Oc3ccccc3)c2)N1c1cccc(Cl)c1Cl (centres undefined) | 23.8 µM (inactive) | 24.3 µM (inactive) | – | 21.5 µM (inactive) | 19.8 µM (inactive) | 36.2 µM (inactive) | 26.7 µM (inactive) | 21 µM (inactive) | 20.2 µM (inactive) | 25.3 µM (inactive) | 40.6 µM (inactive) | – | > 100 µM (inactive) | 39.1 µM (inactive) | 42.6 µM (inactive) | 26.4 µM (inactive) | 26.9 µM (inactive) | 25.1 µM (inactive) | –
4 | C#C[C@]1(O)CC[C@H]2[C@@H]3CCC4=C/C(=N/CCOC(=O)c5cccc6cc7ccccc7nc56)CC[C@@H]4[C@H]3CC[C@@]21C | 34.8 µM (inactive) | 27.7 µM (inactive) | 17.5 µM | 35.5 µM (inactive) | 49.1 µM (inactive) | 14.9 µM (inactive) | 20.6 µM (inactive) | 27.8 µM (inactive) | > 100 µM (inactive) | 31.5 µM (inactive) | 35.2 µM (inactive) | 26 µM (inactive) | 28.4 µM (inactive) | 23 µM (inactive) | 21 µM (inactive) | 11.7 µM (inactive) | 90.6 µM (inactive) | 4.06 µM (inactive) | –
5 | CC(=O)OCc1cc2ccccc2nc1C(Br)(Br)Br | 19.1 µM (inactive) | 0.603 µM (active) | 16.9 µM | 14.8 µM (inactive) | 13.2 µM (inactive) | 16.2 µM (inactive) | 13 µM (inactive) | 12.4 µM (inactive) | 9.02 µM (inactive) | 16.1 µM (inactive) | 26.1 µM (inactive) | 17.1 µM (inactive) | 16.4 µM (inactive) | 18.8 µM (inactive) | 4.59 µM (inactive) | – | 19.6 µM (inactive) | 15.4 µM (inactive) | –
6 | O=C1NC(=O)C(C(=O)C(=O)Nc2cccc(C(F)(F)F)c2)C(=O)N1 | > 100 µM (inactive) | > 100 µM (inactive) | > 100 µM | > 100 µM (inactive) | – | > 100 µM (inactive) | > 100 µM (inactive) | 53 µM (inactive) | > 100 µM (inactive) | > 100 µM (inactive) | > 100 µM (inactive) | – | > 100 µM (inactive) | > 100 µM (inactive) | – | – | > 100 µM (inactive) | > 100 µM (inactive) | > 100 µM (inactive)
